Source: patent publication US20170119776A1, “CHIRAL 2,5-DISUBSTITUTED CYCLOPENTANECARBOXYLIC ACID DERIVATIVES AND USE THEREOF” (BAYER PHARMA AKTIENGESELLSCHAFT, priority 2014, published 2017)

Assays:
Assay type in all cases: biochemical
[1] = target: T1, human macrophage elastase (HME/hMMP-12) (Homo sapiens, UniProt P39900); experiment: In vitro HME inhibition test (standard / high-sensitivity), without BSA; conditions: absence of serum albumin (BSA)
T1 construct: 0.5 nM HME; purchased R&D Systems 917-MP
Excerpt: The activity of the compounds according to the invention towards HME (MMP-12) is ascertained in an in vitro inhibition test. The HME-mediated amidolytic cleavage of a suitable peptide substrate leads herein to a fluorescent light increase. The signal intensity of the fluorescent light is directly proportional to the enzyme activity. The active concentration of a test compound at which half of the enzyme is inhibited (50% signal intensity of the fluorescent light) is given as IC50 value.
In a 384 hole microtiter plate, in a test volume of in total 41 μl of the test buffer (0.1 M HEPES pH 7.4, 0.15 M NaCl, 0.03 M CaCl2, 0.004 mM ZnCl2, […], 0.005% Brij®), the enzyme (0.5 nM HME; R&D Systems, 917-MP, autocatalytic activation according to the manufacturer's instructions) and the intramolecularly quenched substrate [5 μM Mca-Pro-Leu-Gly-Leu-Glu-Glu-Ala-Dap(Dnp)-NH2; Bachem, M-2670] are incubated in the absence and presence of the test substance (as solution in DMSO) for two hours at 37° C. The fluorescent light intensity of the test batches is measured (excitation 323 nm, emission 393 nm). The IC50 values are ascertained by plotting the fluorescent light intensity against the active ingredient concentration.
If subnanomolar IC values are produced for high potent test substances in the standard HME inhibition test described above, then a modified test is used for their more precise determination. Here, a ten-fold lower enzyme concentration is used (final concentration e.g. 0.05 nM), in order to achieve an increased sensitivity of the test. The incubation time of the test is accordingly chosen to be longer (e.g. 16 hours).
Table 1 below gives the IC50 values from these HME inhibition tests for the working examples of the present invention and also for two structurally related comparison compounds from the prior art (as racemate or separated enantiomers)→(sometimes as average values from several independent individual determinations and rounded to two significant places). The IC50 values were determined for racemates and enantiomers from differently generated DMSO stock solutions. Whereas an automatically created DMSO stock solution from the internal substance logistics was used for racemates by means of a standard method, for enantiomers and for a more precise direct comparison of the enantiomers with one another, in each case a freshly produced, manually prepared DMSO stock solution was used.

MMP-2 = target: T2, MMP-2 (Homo sapiens, UniProt P08253); experiment: In vitro MMP-2 inhibition test
T2 construct: purchased R&D Systems 902-MP
T2 sequence (P08253 110-660): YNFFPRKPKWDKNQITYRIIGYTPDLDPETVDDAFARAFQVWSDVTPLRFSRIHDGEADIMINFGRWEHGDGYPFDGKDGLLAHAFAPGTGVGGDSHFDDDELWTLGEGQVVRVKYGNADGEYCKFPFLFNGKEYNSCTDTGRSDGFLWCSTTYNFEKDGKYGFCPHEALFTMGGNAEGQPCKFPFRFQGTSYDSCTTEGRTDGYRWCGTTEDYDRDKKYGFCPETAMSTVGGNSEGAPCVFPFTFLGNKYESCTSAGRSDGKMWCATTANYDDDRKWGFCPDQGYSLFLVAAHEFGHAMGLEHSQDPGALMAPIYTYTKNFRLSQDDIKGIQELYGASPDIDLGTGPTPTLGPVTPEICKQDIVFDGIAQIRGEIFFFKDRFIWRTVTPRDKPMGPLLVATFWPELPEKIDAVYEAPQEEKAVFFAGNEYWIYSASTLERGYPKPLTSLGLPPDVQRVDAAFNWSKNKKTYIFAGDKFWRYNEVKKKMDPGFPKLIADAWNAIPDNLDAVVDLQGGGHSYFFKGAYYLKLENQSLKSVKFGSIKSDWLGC
Excerpt: (§1) The activity strength of the compounds according to the invention towards other MMPs (and therefore their selectivity) is likewise ascertained in in vitro inhibition tests. The MMP-mediated amidolytic cleavage of a suitable peptide substrate also leads here to a fluorescent light increase. The signal intensity of the fluorescent light is directly proportional to the enzyme activity. The active concentration of a test compound at which half of the enzyme is inhibited (50% signal intensity of the fluorescent light) is given as IC50 value.
Recombinant MMP-2 (R&D Systems, 902-MP) is chemically activated in accordance with the manufacturer's instructions using APMA. 1 μl of the test compound to be analysed (as a solution in DMSO, suitable concentrations e.g. 1 nM to 30 μM) is pipetted into 24 μl of activated enzyme (final concentration e.g. 2 nM) in reaction buffer (50 mM Tris/HCl pH 7.5, 10 mM CaCl2, 150 mM NaCl, 0.05% Brij®-35) in a white 384-hole microtiter plate (MTP). The enzymatic reaction is started by adding the intramolecularly quenched substrate Mca-Pro-Leu-Gly-Leu-Dpa(Dnp)-Ala-Arg-NH2 (final concentration e.g. 10 μM; R&D Systems, ES-001), such that a total test volume of 50 μl results. The progress of the MMP-2 reaction is measured by measuring the fluorescence intensity (excitation 320 nm, emission 410 nm) over a suitable period (e.g. over 120 min at a temperature of 32° C.).
(§2) The IC50 values were determined for racemates and enantiomers from differently generated DMSO stock solutions. Whereas an automatically produced DMSO stock solution from the internal substance logistics was used for racemates by means of a standard method, in the case of enantiomers a freshly produced, manually prepared DMSO stock solution was used in each case for a more precise direct comparison of the enantiomers with one another.

MMP-14 = target: T3, MMP-14 (Homo sapiens, UniProt P50281); experiment: In vitro MMP-14 inhibition test
T3 construct: purchased R&D Systems 918-MP
Excerpt: as §1
Recombinant MMP-14 (R&D Systems, 918-MP) is enzymatically activated in accordance with the manufacturer's instructions using recombinant furin (R&D Systems, 1503-SE). 1 μl of the test compound to be analysed (as a solution in DMSO, suitable concentrations e.g. 1 nM to 30 μM) is pipette into 24 μl of activated enzyme (final concentration e.g. 0.5 nM) in reaction buffer (50 mM Tris/HCl pH 7.5, 10 mM CaCl2, 150 mM NaCl, 0.05% Brij®-35) in a white 384-hole microtiter plate (MTP). The enzymatic reaction is started by adding the intramolecularly quenched substrate Mca-Lys-Pro-Leu-Gly-Leu-Dpa(Dnp)-Ala-Arg-NH2 (final concentration e.g. 5 μM; R&D Systems, ES-010), such that a total test volume of 50 μl results. The progress of the MMP-14 reaction is measured by measuring the fluorescence intensity (excitation 320 nm, emission 410 nm) over a suitable period (e.g. over 120 min at a temperature of 32° C.).
as §2

T1 sequence (P39900 106-470): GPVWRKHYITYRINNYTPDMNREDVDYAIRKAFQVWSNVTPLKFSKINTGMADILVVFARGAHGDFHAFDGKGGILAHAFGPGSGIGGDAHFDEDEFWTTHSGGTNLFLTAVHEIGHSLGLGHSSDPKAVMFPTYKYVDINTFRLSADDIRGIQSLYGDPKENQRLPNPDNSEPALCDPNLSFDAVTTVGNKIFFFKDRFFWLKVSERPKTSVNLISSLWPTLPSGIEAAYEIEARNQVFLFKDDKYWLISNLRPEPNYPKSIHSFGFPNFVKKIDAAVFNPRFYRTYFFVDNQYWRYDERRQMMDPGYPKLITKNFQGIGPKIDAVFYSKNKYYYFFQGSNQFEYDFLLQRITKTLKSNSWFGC

Row | IC50 [1] [nM] | IC50 (MMP-2) [nM] | IC50 (MMP-14) [nM] | SMILES
1 | 0.043 | 1.1 | 2.9 | O=C(O)[C@H]1[C@H](Cn2nnc3ccccc3c2=O)CC[C@@H]1C(=O)c1ccc(-c2ccc(Cl)cc2)cc1 (racemic) [Comparative Example A-1, (1RS,2RS,5SR)-2-[(4′-chlorobiphenyl-4-yl)carbonyl]-5-[(4-oxo-1,2,3-benzotriazin-3(4H)-yl)methyl]cyclopentanecarboxylic acid (racemate)]
2 | 1.5 | 450 | 3800 | CCCCCOc1ccc(C(=O)CC(CCn2nnc3ccccc3c2=O)C(=O)O)cc1 (racemic) [Comparative Example B-1, (+/−)-4-Oxo-2-[2-(4-oxo-1,2,3-benzotriazin-3(4H)-yl)ethyl]-4-[4-(pentyloxy)phenyl]butanoic acid (racemate)]
3 | 0.059 | 18 | 27 | O=C(O)[C@H]1[C@H](Cn2nnc3ccccc3c2=O)CC[C@@H]1C(=O)c1ccc(OCc2ccccc2)cc1 (racemic) [Example 1, (+/−)-(1RS,2RS,5SR)-2-[4-(Benzyloxy)benzoyl]-5-[(4-oxo-1,2,3-benzotriazin-3(4H)-yl)methyl]cyclopentanecarboxylic acid (racemate)]
4 | 1.6 | 120 | 1300 | CCCCCOc1ccc(C(=O)CC(CCn2nnc3ccccc3c2=O)C(=O)O)cc1 (single isomer, unassigned; enantiomer 1) [Comparative Example B-2, (+)-4-Oxo-2-[2-(4-oxo-1,2,3-benzotriazin-3(4H)-yl)ethyl]-4-[4-(pentyloxy)phenyl]butanoic acid (enantiomer 1)]
5 | 0.018 | 0.7 | 1.2 | O=C(O)[C@@H]1[C@@H](Cn2nnc3ccccc3c2=O)CC[C@H]1C(=O)c1ccc(-c2ccc(Cl)cc2)cc1 (single isomer, unassigned; enantiomer 2) [Comparative Example A-3, (1RS,2RS,5SR)-2-[(4′-Chlorobiphenyl-4-yl)carbonyl]-5-[(4-oxo-1,2,3-benzotriazin-3(4H)-yl)methyl]cyclopentanecarboxylic acid (enantiomer 2)]
6 | 0.071 | 11.8 | 15 | O=C(O)[C@H]1[C@H](Cn2nnc3ccccc3c2=O)CC[C@@H]1C(=O)c1ccc(OCc2ccccc2)cc1 [Example 2, (+)-(1S,2S,5R)-2-[4-(Benzyloxy)benzoyl]-5-[(4-oxo-1,2,3-benzotriazin-3(4H)-yl)methyl]cyclopentanecarboxylic acid]
